From publication PMC4263137, “Positron emission tomography and functional characterization of a complete PBR/TSPO knockout” (Nature Communications, 2014) come the findings set out here.

Molecules are shown by their SMILES.

The target in the experiment is T1, PBR/TSPO (18-kDa translocator protein) (Mus musculus, UniProt P50637).
T1 construct: native protein in kidney and testis membranes of Tspo+/+ mice
Nature of the experiment: [3H]PK11195 saturation radioligand binding on tissue membranes; autoradiography; no binding in Tspo-/- mice.

T1 sequence (P50637 whole entry): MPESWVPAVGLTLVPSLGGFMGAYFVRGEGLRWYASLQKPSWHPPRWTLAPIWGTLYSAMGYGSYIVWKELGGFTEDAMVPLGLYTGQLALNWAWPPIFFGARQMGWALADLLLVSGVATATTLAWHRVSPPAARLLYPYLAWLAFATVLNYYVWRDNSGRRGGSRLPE

As for `CCC(C)N(C)C(=O)c1cc2ccccc2c(-c2ccccc2Cl)n1` (stereo not shown) [PK11195, 1-(2-chlorophenyl)-N-methyl-(1-methylpropyl)-3 isoquinolinecarboxamide], the Kd (in general, the equilibrium constant for the complex coming apart) was 12.9 nM.
